This note sets out measurements from patent US5185340A, “Pyrimidinyl arylalkyl ethers with antihypertensive activity” (American Home Products Corporation, priority 1992, dated 1993).

One test has as its target angiotensin II receptor. Put plainly: Rat adrenal receptor binding assay, displacement of radiolabeled angiotensin II. Further details: species or system rat (male Sprague-Dawley). The note with it: rat adrenal cortex membranes; 125I-A II 1 nM; read-out: Inhibition of 125I-Angiotensin II binding, IC50. The method, then:
The high affinity of the compounds for the angiotensin II receptor was established using a rat adrenal receptor binding assay, measuring the displacement of radiolabeled angiotensin II (A II) from the receptor, described as follows: Anesthetize male Sprague-Dawley rats (300-400 g body weight) with CO2 and sacrifice by cervical dislocation. Dissect adrenal glands and keep in ice-cold sucrose buffer. (0.2M sucrose, 1 mM EDTA, 10 mM Trizma base, pH=7.2). Remove medulla by squashing. Mince the cortex, rinse and homogenize in a chilled ground glass tissue grinder with 15 ml sucrose buffer. Centrifuge at 3000× g for 10 min. (Sorvall RCSC centrifuge, SS34 rotor 6200 rpm). Decant supernatant through gauze. Centrifuge combined supernatants at 12000× g for 13 min. (Beckman ultracentrifuge, 80Ti rotor, 13000 rpm). Centrifuge the supernatant from the previous step at 102000× g for 60 min. (Beckman ultracentrifuge,80Ti rotor, 38200 rpm). All steps are carried out at 4° C. Resuspend the pellet in 0.5 mL assay buffer (50 mM Tris HCI, 5 mM MgCl2, 0.2% BSA (proteasefree), pH=7.4, 25° C.). Store on ice. Determine membrane protein by Lowry or Bradford assay with BSA as standard. The binding assay is performed in triplicate, in 12×75 mm plastic test tubes or in 96-well plate (final volume of 0.25 mL). Add 140 μL assay buffer. […] Calculate the quantities of hot A II and the cold A II needed and make the dilution. […]

The test system of test [1] is Angiotensin II infused rat. Nature of the test: Reduction of blood pressure in Angiotensin II infused rat. In kind it is in vivo. The note with it: 3 mg/kg/ml via duodenal cannula. As for the experimental part:
In accordance with their ability to antagonize angiotensin II, the compounds of this invention show antihypertensive action in the following A II-infused rat model. Rats are anesthetized with Dial-Urethane (0.60 mL/kg, ip) and the trachea cannulated with PE 240. Either one femoral artery and both femoral veins or the carotid artery and the corresponding jugular vein are cannulated with PE 50. If the jugular vein is cannulated, two cannulas are placed in the one vein. The initial portion of the duodenum (just distal to the stomach) is cannulated with PE 50 via a small midline incision. Arterial pressure and heart rate are measured from the arterial cannula. Ten to 15 min are allowed following surgery for stabilization of arterial pressure. Ganglion blockade is then produced by intravenous administration of mecamylamine at 3 mg/kg (1 mL/kg of a 3 mg/mL solution). Ganglion blockade causes a fall in arterial pressure of about 50 mmHg. Mecamylamine is given every 90 min throughout the remainder of the experiment. An A II infusion is then begun into the other venous cannula at 0.25 μg/kg/min (at […]). The A II infusion returns arterial pressure to or slightly above the control level. Once arterial pressure has stabilized with the A II infusion, baseline values for mean arterial pressure (MAP) and heart rate are taken. The test compound, suspended in methyl cellulose, is then administered via the duodenal cannula at 0.1, 3 or, 30 mg/kg in a volume of 1 mL/kg. Mean arterial pressure and heart rate values are tabulated at 15, 30, 60, 90, 120, 150, 180, 210, and 240 min after administration of the test compound.

As to `CCCc1c(CC)nc(C(F)(F)F)nc1OCc1ccc(-c2ccccc2-c2nnn[nH]2)cc1` [Example 4, 6-Ethyl-5-propyl-4-[[2'-(1H-tetrazol-5-yl)[1,1'-biphenyl]-4-yl]methoxy]-2-(trifluoromethyl)pyrimidine], the IC50 (commonly the concentration needed to halve the response being measured) on angiotensin II receptor was 200 nM.

As to `FC(F)(F)c1nc2c(c(OCc3ccc(-c4ccccc4-c4nnn[nH]4)cc3)n1)CCCC2` [Example 5, 4-[[2'-(1H-Tetrazol-5-yl)-biphenyl-4-yl]methoxy]-2-trifluoromethyl-5,6,7,8-tetrahydroquinazoline], the “% decrease in MAP” value in test [1] (15 min) was 22%; in test [1] (90 min) it was 15%; in test [1] (240 min), 0%. Besides, the IC50 at angiotensin II receptor was 38 nM.
